{"source": "the NIST ThermoML archive (doi:10.1021/je900302n)", "note": "Numbers after ± are expanded uncertainties.", "data": [{"conditions": "Liquid; pulse heating", "units": {"Critical pressure": "kPa", "Critical temperature": "K"}, "values": [{"smiles": "CCCCCCCCC[O][Ti]([O]CCCCCCCCC)([O]CCCCCCCCC)[O]CCCCCCCCC", "note": "[tetranonoxytitanium]", "Critical pressure": "630 ± 40", "Critical temperature": "855 ± 18"}, {"smiles": "CCCCC[O][Ti]([O]CCCCC)([O]CCCCC)[O]CCCCC", "note": "[tetrakis(pentyloxy)titanium]", "Critical pressure": "910 ± 60", "Critical temperature": "751 ± 16"}, {"smiles": "CC[O-].CC[O-].CC[O-].CC[O-].[Ti+4]", "note": "[tetraethoxytitanium]", "Critical pressure": "1400 ± 80", "Critical temperature": "647 ± 12"}, {"smiles": "CCCCCCC[O][Ti]([O]CCCCCCC)([O]CCCCCCC)[O]CCCCCCC", "note": "[tetraheptoxytitanium]", "Critical pressure": "730 ± 40", "Critical temperature": "808 ± 16"}, {"smiles": "CCCCCC[O][Ti]([O]CCCCCC)([O]CCCCCC)[O]CCCCCC", "note": "[tetrakis(hexyloxy)titanium]", "Critical pressure": "780 ± 40", "Critical temperature": "780 ± 16"}, {"smiles": "CCCCCCCCCC[O][Ti]([O]CCCCCCCCCC)([O]CCCCCCCCCC)[O]CCCCCCCCCC", "note": "[tetra(decyloxy)titanium]", "Critical pressure": "610 ± 40", "Critical temperature": "882 ± 18"}, {"smiles": "CCCCCCCC[O][Ti]([O]CCCCCCCC)([O]CCCCCCCC)[O]CCCCCCCC", "note": "[tetraoctoxytitanium]", "Critical pressure": "660 ± 40", "Critical temperature": "831 ± 16"}, {"smiles": "CCCC[O-].CCCC[O-].CCCC[O-].CCCC[O-].[Ti+4]", "note": "[titanium(IV) butan-1-olate]", "Critical pressure": "1020 ± 60", "Critical temperature": "719 ± 14"}, {"smiles": "CCC[O-].CCC[O-].CCC[O-].CCC[O-].[Ti+4]", "note": "[tetrapropoxytitanium]", "Critical pressure": "1150 ± 80", "Critical temperature": "685 ± 14"}]}]}
